Experimental data published in patent US20240199535A1, “DEUTERATED DHODH INHIBITORS” (priority 2021, published 2024).

Test system: SARS-CoV-2
Assay: Antiviral activity on SARS-CoV-2, viral replication (YFP) assay
Format: cell-based
Settings: Severe acute respiratory syndrome coronavirus 2, read-out: EC50 range

## [2H]C([2H])([2H])C([2H])([2H])Oc1cccc(-c2cc(F)c(NC(=O)C3=C(C(=O)O)CCC3)c(F)c2)c1 [1/3]
  EC50: < 10 µM

## [2H]c1cc([2H])c(-c2ccc(NC(=O)C3=C(C(=O)O)CCC3)c(F)c2)c([2H])c1O [Example 8, 2-((3-Fluoro-3′-hydroxy-[1,1′-biphenyl]-4-yl-2′,4′,6′-d3)carbamoyl)cyclopent-1-ene-1-carboxylic Acid]
  EC50: 25 to 50 µM

## [2H]C([2H])([2H])Oc1cccc(-c2cc(F)c(NC(=O)C3=C(C(=O)O)COC3)c(F)c2)c1 [Example 11, 4-((3,5-Difluoro-3′-(methoxy-d3)-[1,1′-biphenyl]-4-yl)carbamoyl)-2,5-dihydrofuran-3-carboxylic Acid]
  EC50: > 50 µM

## [2H]C([2H])([2H])Oc1cccc(-c2ccc(NC(=O)C3=C(C(=O)O)CCC3)c3ccccc23)c1 [12/4]
  EC50: 10 to 25 µM

## [2H]C([2H])([2H])Oc1cccc(-c2cc(F)c(NC(=O)C3=C(C(=O)O)CCC3)c(F)c2)n1 [1/10]
  EC50: 10 to 25 µM

## [2H]c1cc([2H])c(-c2c(F)c(F)c(NC(=O)C3=C(C(=O)O)CCC3)c(F)c2F)c([2H])c1OC(F)(F)F [Example 3, 2-((2,3,5,6-Tetrafluoro-3′-(trifluoromethoxy)-[1,1′-biphenyl]-4-yl-2′,4′,6′-d3)carbamoyl)cyclopent-1-ene-1-carboxylic Acid]
  EC50: < 10 µM

## [2H]C([2H])([2H])Oc1nc(-c2cc(F)c(NC(=O)C3=C(C(=O)O)CCC3)c(F)c2)cs1 [1/8]
  EC50: 25 to 50 µM

## [2H]C([2H])([2H])Oc1cccc(-c2cnc(NC(=O)C3=C(C(=O)O)CCC3)c(F)c2)c1 [Example 12, 2-((3-Fluoro-5-(3-(methoxy-d3)phenyl)pyridin-2-yl)carbamoyl)cyclopent-1-ene-1-carboxylic Acid]
  EC50: < 10 µM

## [2H]C([2H])([2H])Oc1cc(-c2cc(F)c(NC(=O)C3=C(C(=O)O)CCC3)c(F)c2)ccn1 [1/9]
  EC50: 25 to 50 µM
